Test system: Mus musculus
Assay: Analgesic activity against acetic acid-induced Kunming writhing mouse model assessed as inhibition of writhing at 10 mg/kg, sc pretreated with compound for 15 mins followed by acetic acid addition and measured after 15 mins relative to control
Type: functional
Conditions: 0.5 h, time 30 min

Row | SMILES | inhibition in vivo at 10 mg/kg
1 | CCN1C[C@]2(OC(=O)c3ccccc3NS(=O)(=O)c3cccs3)CC[C@H](OC)[C@]34C1[C@H](C[C@H]23)[C@@]1(O)C[C@H](OC)[C@H]2C[C@@H]4[C@]1(O)[C@H]2OC | 1%
2 | CCN1C[C@]2(OC(=O)c3ccccc3NC(=O)c3cccc(F)c3)CC[C@H](OC)[C@]34C1[C@H](C[C@H]23)[C@@]1(O)C[C@H](OC)[C@H]2C[C@@H]4[C@]1(O)[C@H]2OC | 27.5%
3 | CCN1C[C@]2(OC(=O)c3ccccc3NS(=O)(=O)c3ccc(C(F)(F)F)cc3)CC[C@H](OC)[C@]34C1[C@H](C[C@H]23)[C@@]1(O)C[C@H](OC)[C@H]2C[C@@H]4[C@]1(O)[C@H]2OC | 19.4%
4 | CCN1C[C@]2(OC(=O)c3ccccc3NC(=O)c3ccc(S(C)(=O)=O)cc3)CC[C@H](OC)[C@]34C1[C@H](C[C@H]23)[C@@]1(O)C[C@H](OC)[C@H]2C[C@@H]4[C@]1(O)[C@H]2OC | 8.4%
5 | CCN1C[C@]2(OC(=O)c3ccccc3NC(=O)c3ccc([N+](=O)[O-])cc3)CC[C@H](OC)[C@]34C1[C@H](C[C@H]23)[C@@]1(O)C[C@H](OC)[C@H]2C[C@@H]4[C@]1(O)[C@H]2OC | 27.2%
6 | CCN1C[C@]2(OC(=O)c3ccccc3NC(=O)c3ccc(OC)c(OC)c3)CC[C@H](OC)[C@]34C1[C@H](C[C@H]23)[C@@]1(O)C[C@H](OC)[C@H]2C[C@@H]4[C@]1(O)[C@H]2OC | 34.6%
7 | CCN1C[C@]2(OC(=O)c3ccccc3NS(=O)(=O)c3cccc(F)c3)CC[C@H](OC)[C@]34C1[C@H](C[C@H]23)[C@@]1(O)C[C@H](OC)[C@H]2C[C@@H]4[C@]1(O)[C@H]2OC | 50.2%
8 | CCN1C[C@]2(OC(=O)c3ccccc3NS(=O)(=O)c3ccc(F)cc3)CC[C@H](OC)[C@]34C1[C@H](C[C@H]23)[C@@]1(O)C[C@H](OC)[C@H]2C[C@@H]4[C@]1(O)[C@H]2OC | 14.7%
9 | CCN1C[C@]2(OC(=O)c3ccccc3NC(=O)c3cccc(Cl)c3)CC[C@H](OC)[C@]34C1[C@H](C[C@H]23)[C@@]1(O)C[C@H](OC)[C@H]2C[C@@H]4[C@]1(O)[C@H]2OC | 17.5%
10 | CCN1C[C@]2(OC(=O)c3ccccc3NS(=O)(=O)Cc3ccccc3)CC[C@H](OC)[C@]34C1[C@H](C[C@H]23)[C@@]1(O)C[C@H](OC)[C@H]2C[C@@H]4[C@]1(O)[C@H]2OC | 43.8%
11 | CCN1C[C@]2(OC(=O)c3ccccc3NS(=O)(=O)c3cccc(C(F)(F)F)c3)CC[C@H](OC)[C@]34C1[C@H](C[C@H]23)[C@@]1(O)C[C@H](OC)[C@H]2C[C@@H]4[C@]1(O)[C@H]2OC | 12.8%
12 | CCN1C[C@]2(OC(=O)c3ccccc3NC(=O)c3ccc(Cl)s3)CC[C@H](OC)[C@]34C1[C@H](C[C@H]23)[C@@]1(O)C[C@H](OC)[C@H]2C[C@@H]4[C@]1(O)[C@H]2OC | 27.8%
13 | CCN1C[C@]2(OC(=O)c3ccccc3NC(=O)c3cccc(Br)c3)CC[C@H](OC)[C@]34C1[C@H](C[C@H]23)[C@@]1(O)C[C@H](OC)[C@H]2C[C@@H]4[C@]1(O)[C@H]2OC | 3.4%
14 | CCN1C[C@]2(OC(=O)c3ccccc3NC(=O)C3CCCC3)CC[C@H](OC)[C@]34C1[C@H](C[C@H]23)[C@@]1(O)C[C@H](OC)[C@H]2C[C@@H]4[C@]1(O)[C@H]2OC | 56.9%
15 | CCN1C[C@]2(OC(=O)c3ccccc3NC(=O)c3ccc(C(=O)OC)cc3)CC[C@H](OC)[C@]34C1[C@H](C[C@H]23)[C@@]1(O)C[C@H](OC)[C@H]2C[C@@H]4[C@]1(O)[C@H]2OC | 36.4%
16 | CCN1C[C@]2(OC(=O)c3ccccc3NS(=O)(=O)c3ccc(OC)cc3)CC[C@H](OC)[C@]34C1[C@H](C[C@H]23)[C@@]1(O)C[C@H](OC)[C@H]2C[C@@H]4[C@]1(O)[C@H]2OC | 16.8%
17 | CCN1C[C@]2(OC(=O)c3ccccc3NC(=O)c3ccccc3)CC[C@H](OC)[C@]34C1[C@H](C[C@H]23)[C@@]1(O)C[C@H](OC)[C@H]2C[C@@H]4[C@]1(O)[C@H]2OC | 0%
18 | CCN1C[C@]2(OC(=O)c3ccccc3NS(=O)(=O)c3ccccc3F)CC[C@H](OC)[C@]34C1[C@H](C[C@H]23)[C@@]1(O)C[C@H](OC)[C@H]2C[C@@H]4[C@]1(O)[C@H]2OC | 60.3%
19 | CCN1C[C@]2(OC(=O)c3ccccc3NC(=O)c3ccc(Br)cc3)CC[C@H](OC)[C@]34C1[C@H](C[C@H]23)[C@@]1(O)C[C@H](OC)[C@H]2C[C@@H]4[C@]1(O)[C@H]2OC | 39.4%
20 | CCN1C[C@]2(OC(=O)c3ccccc3NC(=O)c3ccccc3Br)CC[C@H](OC)[C@]34C1[C@H](C[C@H]23)[C@@]1(O)C[C@H](OC)[C@H]2C[C@@H]4[C@]1(O)[C@H]2OC | 0%

Row | SMILES | inhibition in vivo at 10 mg/kg
21 | CCN1C[C@]2(OC(=O)c3ccccc3NC(=O)c3ccc(C(C)C)cc3)CC[C@H](OC)[C@]34C1[C@H](C[C@H]23)[C@@]1(O)C[C@H](OC)[C@H]2C[C@@H]4[C@]1(O)[C@H]2OC | 21%
22 | CCN1C[C@]2(OC(=O)c3ccccc3NS(=O)(=O)c3cc(F)c(F)cc3F)CC[C@H](OC)[C@]34C1[C@H](C[C@H]23)[C@@]1(O)C[C@H](OC)[C@H]2C[C@@H]4[C@]1(O)[C@H]2OC | 26%
23 | CCN1C[C@]2(OC(=O)c3ccccc3NS(=O)(=O)c3cccc4cccnc34)CC[C@H](OC)[C@]34C1[C@H](C[C@H]23)[C@@]1(O)C[C@H](OC)[C@H]2C[C@@H]4[C@]1(O)[C@H]2OC | 42.4%
24 | CCN1C[C@]2(OC(=O)c3ccccc3NC(=O)c3ccc(OC(F)(F)F)cc3)CC[C@H](OC)[C@]34C1[C@H](C[C@H]23)[C@@]1(O)C[C@H](OC)[C@H]2C[C@@H]4[C@]1(O)[C@H]2OC | 10%
25 | CCN1C[C@]2(OC(=O)c3ccccc3NS(=O)(=O)c3cccc4ccccc34)CC[C@H](OC)[C@]34C1[C@H](C[C@H]23)[C@@]1(O)C[C@H](OC)[C@H]2C[C@@H]4[C@]1(O)[C@H]2OC | 49.3%
26 | CCN1C[C@]2(OC(=O)c3ccccc3NC(=O)c3ccc(Cl)cc3Cl)CC[C@H](OC)[C@]34C1[C@H](C[C@H]23)[C@@]1(O)C[C@H](OC)[C@H]2C[C@@H]4[C@]1(O)[C@H]2OC | 31.2%
27 | CCN1C[C@]2(OC(=O)c3ccccc3NC(=O)c3cnc(Cl)cn3)CC[C@H](OC)[C@]34C1[C@H](C[C@H]23)[C@@]1(O)C[C@H](OC)[C@H]2C[C@@H]4[C@]1(O)[C@H]2OC | 31.5%
28 | CCN1C[C@]2(OC(=O)c3ccccc3NS(=O)(=O)c3ccccc3Br)CC[C@H](OC)[C@]34C1[C@H](C[C@H]23)[C@@]1(O)C[C@H](OC)[C@H]2C[C@@H]4[C@]1(O)[C@H]2OC | 24.7%
29 | CCN1C[C@]2(OC(=O)c3ccccc3NC(=O)c3cccc(OC)c3)CC[C@H](OC)[C@]34C1[C@H](C[C@H]23)[C@@]1(O)C[C@H](OC)[C@H]2C[C@@H]4[C@]1(O)[C@H]2OC | 0%
30 | CCN1C[C@]2(OC(=O)c3ccccc3NS(=O)(=O)c3cc(F)cc(F)c3)CC[C@H](OC)[C@]34C1[C@H](C[C@H]23)[C@@]1(O)C[C@H](OC)[C@H]2C[C@@H]4[C@]1(O)[C@H]2OC | 37.5%
31 | CCN1C[C@]2(OC(=O)c3ccccc3NS(=O)(=O)c3ccc4ccccc4c3)CC[C@H](OC)[C@]34C1[C@H](C[C@H]23)[C@@]1(O)C[C@H](OC)[C@H]2C[C@@H]4[C@]1(O)[C@H]2OC | 28.4%
32 | CCCCCCC(=O)Nc1ccccc1C(=O)O[C@@]12CC[C@H](OC)[C@]34C([C@H](C[C@H]13)[C@@]1(O)C[C@H](OC)[C@H]3C[C@@H]4[C@]1(O)[C@H]3OC)N(CC)C2 | 54.2%
33 | CCN1C[C@]2(OC(=O)c3ccccc3NC(=O)c3cccc(C)c3)CC[C@H](OC)[C@]34C1[C@H](C[C@H]23)[C@@]1(O)C[C@H](OC)[C@H]2C[C@@H]4[C@]1(O)[C@H]2OC | 36.9%
34 | CCN1C[C@]2(OC(=O)c3ccccc3NS(=O)(=O)Cc3ccc([N+](=O)[O-])cc3)CC[C@H](OC)[C@]34C1[C@H](C[C@H]23)[C@@]1(O)C[C@H](OC)[C@H]2C[C@@H]4[C@]1(O)[C@H]2OC | 42.4%
35 | CCN1C[C@]2(OC(=O)c3ccccc3NS(=O)(=O)c3cccnc3)CC[C@H](OC)[C@]34C1[C@H](C[C@H]23)[C@@]1(O)C[C@H](OC)[C@H]2C[C@@H]4[C@]1(O)[C@H]2OC | 32.3%
36 | CCN1C[C@]2(OC(=O)c3ccccc3NS(=O)(=O)c3ccc(C#N)cc3)CC[C@H](OC)[C@]34C1[C@H](C[C@H]23)[C@@]1(O)C[C@H](OC)[C@H]2C[C@@H]4[C@]1(O)[C@H]2OC | 21.4%
37 | CCN1C[C@]2(OC(=O)c3ccccc3NC(=O)c3ccccc3F)CC[C@H](OC)[C@]34C1[C@H](C[C@H]23)[C@@]1(O)C[C@H](OC)[C@H]2C[C@@H]4[C@]1(O)[C@H]2OC | 17.7%
38 | CCN1C[C@]2(OC(=O)c3ccccc3NS(=O)(=O)c3ccc(-c4ccccc4)cc3)CC[C@H](OC)[C@]34C1[C@H](C[C@H]23)[C@@]1(O)C[C@H](OC)[C@H]2C[C@@H]4[C@]1(O)[C@H]2OC | 16.1%
39 | CCN1C[C@]2(OC(=O)c3ccccc3NC(=O)c3ccc(Cl)cc3)CC[C@H](OC)[C@]34C1[C@H](C[C@H]23)[C@@]1(O)C[C@H](OC)[C@H]2C[C@@H]4[C@]1(O)[C@H]2OC | 31.6%
40 | CCN1C[C@]2(OC(=O)c3ccccc3NS(=O)(=O)c3cccc(Cl)c3)CC[C@H](OC)[C@]34C1[C@H](C[C@H]23)[C@@]1(O)C[C@H](OC)[C@H]2C[C@@H]4[C@]1(O)[C@H]2OC | 33.1%

Reference: ChEMBL document CHEMBL5352433, “Design, synthesis, and biological evaluation of low-toxic lappaconitine derivatives as potential analgesics” (Eur J Med Chem, 2022)
